We go through two compounds from patent US20240280493A1, “CELLULAR SENSORS BASED ON SURFACE-ENHANCED RAMAN SCATTERING AND APPLICATION THEREOF” (CHINA PHARMACEUTICAL UNIVERSITY, priority 2022, published 2024).

The data set deals with γH2AX. Put plainly: Impurity genotoxicity assessment with the SERS cell-based sensor (L02 cells, Anti γH2AX@GPMT probe), fold of induction of γH2AX. To be noted: 24 h incubation, MMS 50 μg/ml, SA 50 μg/ml, 5-Fu 0.1 μg/ml, NDEA 500 μg/ml, FI > 1.5 judged genotoxic. How it is done: A human liver cell line L02 is cultured in DMEM containing 10% fetal calf serum, and put in a 37° C. incubator containing 5% CO2, and a sterile operation is performed in an entire process. When the cells grow to a logarithmic phase, L02 is inoculated into a 24-well plate containing a cell slide according to a density of 5000 cells/well, after being attached to a wall, a culture medium is replaced by a SERS probe culture medium with a concentration being 0.05 nM, and incubation is performed for 4 h.
The cell-based sensor culture medium is replaced by a culture medium containing impurities of different concentrations, continuous incubation is performed for 24 h, then the slide is taken out and put in a confocal inverted microscope bright and dark field imaging Raman spectrometer to be tested, the Raman signals of the test group and the control group are compared, and the impurity genotoxicity is assessed.
Methyl methanesulfonate (MMS), a salicylic acid (SA), 5-fluorouracil (5-Fu) and N-nitrosodiethylamine (NDEA) are selected respectively as genotoxic impurities of different structure types to be tested. […]

Molecules are shown by their SMILES.

Turning to `CCN(CC)N=O` [NDEA, N-nitrosodiethylamine], the “FI value (fold of induction, concentration ratio of effector molecules of test group and control group)” value came out at 3.59.

As to `O=C(O)c1ccccc1O` [SA, salicylic acid], the “FI value (fold of induction, concentration ratio of effector molecules of test group and control group)” value is 1.02.
